Source: PMC8854749, “Celastrol Inhibits Canine Mammary Tumor Cells by Inducing Apoptosis via the Caspase Pathway” (Frontiers in Veterinary Science, 2022)

Columns and labels:
Assay type in all cases: cell-based, canine
CMT-7364 cells [1] = experiment: Cell invasion (transwell, Matrigel) assay
Description: (§1) The transwell chambers were placed in a 24-well cell culture plate, each well was plated with 100 μl serum-free medium containing 5% Matrigel on the upper chamber, and placed in incubator at 37°C for 2 h. The excess media were pipetted out of the upper chamber, 100 μl of cell suspension with or without celastrol treatment (0.3 μM or 0.9 μM) were added at a concentration of 1 × 10^4 cells/ml in each upper chamber; the lower chambers were filled with 600 μl medium containing 10% serum for each well. […] PBS was used to rinse the chambers for 2 min with 3 times repeated, then the cells were fixed with methanol for 10 min, followed by distilled water rinsed for 2 min with 3 times repeated. Finally, cells were dyed with 0.1% crystal violet at room temperature for 20 min, and washed with distilled water until the water is colorless. Images of cell invasion were taken with an inverted microscope, and the stained cells represented the invasion cells were counted by a cell counter to analyze the cell invasion rate. The relative invasion rate = (cell number celastrol /cell number control) × 100%.

CIPp cells [2] = experiment: Cell invasion (transwell, Matrigel) assay
Description: as §1

CMT-7364 cells [3] = experiment: qPCR of Caspase-3, Caspase-9, p21, p27 mRNA (2^-ΔΔCt, β-actin reference)
Description: (§2) After CMT-7364 and CIPp cells were treated with or without 0.9 μM celastrol for 24 h, TRIzol was used to isolate the total RNA of the cells. The RNA was then reverse transcribed into cDNA using a reverse transcriptase kit. A 20 μl reaction system was prepared according to the manufacturer's instructions and tested in the Real-Time PCR System (Long Gene Q1000, China). The results were analyzed by the 2^−ΔΔCt method: ΔΔCt = (target gene Ct of the experimental group-internal reference gene Ct of the experimental group)-(target gene Ct of the control group-internal reference gene Ct of the control group), β-actin was the internal reference gene.

CIPp cells [4] = experiment: as above
Description: as §2

CMT-7364 cells [5] = experiment: Cell migration (wound healing) assay; details: 0.9 μM, 24 h, relative to cells without celastrol
Description: (§3) CMT-7364 and CIPp cell suspensions were uniformly seeded in a 6-well cell culture plate at a concentration of 1 × 10^5 cells/well. After the cells were fully confluent (more than 90 % of confluence), a 200-μl sterile pipette tip was used to scratch a straight line in the cells of each well. PBS was used to wash away the cell debris and floated cells, and 10% serum-containing medium (control group) and 10% serum-containing medium with celastrol (0.3 μM or 0.9 μM) (test group) were added, respectively, then cells were incubated for 24 h in an incubator. Mitomycin C (1 μM) was used to inhibit cell proliferation. Images of cell migration (wound healing) of the same field were taken with an inverted microscope at 0 and 24 h time points, respectively, followed by analyzing the cell migration rate with ImageJ software (version 1.8.0, United States). In brief, 6–8 horizontal lines were randomly drawn in the wound area to calculate the average value of the distance between cells. The migration rate = [(Distance celastrol0h-Distance celastrol24h) / (Distance control0h-Distance control24h)] × 100%.

CIPp cells [6] = experiment: Cell migration (wound healing) assay; details: 0.9 μM, 24 h, relative to cells without celastrol
Description: as §3

CMT-7364 cells [7] = experiment: Cell Counting Kit-8 (CCK-8) cell viability; details: for IC50: Canis lupus familiaris, CCK-8
Description: CMT-7364, CIPp, and MDCK cells were plated in a 96-well plate with 2,000 cells per well and maintained in 5% CO2 at 37°C for 24 h until the cells adhered to the bottom. Then the medium was removed, the new media containing different concentrations (0, 0.1, 0.4, 0.6, 0.8, 1.2, and 1.6 μM) of celastrol were added, and incubated for 12, 24, 36, and 48 h. Ten microliters of the cell counting kit-8 (CCK-8) were added to each well for 1 h incubation. At each time point, the OD value was read by a microplate reader at 450 nm wavelength, and the cell viability with each drug concentration at different time points was calculated: cell relative viability=[(OD 450celastrol-OD 450blank) / (OD 450control-OD 450blank)] × 100%.

CMT-7364 cells [8] = experiment: Annexin V-FITC/PI apoptosis detection, fluorescence microscope; details: 0.3 μM or 0.9 μM, 24 h, vs control group
Description: (§4) CMT-7364 and CIPp cells were seeded in a 6-well plate at a concentration of 1 × 10^5 cells/well, treated with different concentrations of celastrol (0, 0.3, 0.9 μM) for 24 h. Then cells were double-stained by Annexin V-FITC/PI, incubating at room temperature for 20 min in the dark, followed by observing with a fluorescence microscope. Green fluorescence represents Annexin V-FITC staining positive, and red fluorescence represents PI staining positive. Apoptotic cells were single-stained by green fluorescence, late apoptotic or necrotic cells were double-stained by green and red fluorescence, and normal cells were not stained by fluorescence. Finally, pictures of the cells were taken by a fluorescence microscope.

CIPp cells [9] = experiment: as above; details: 0.3 μM or 0.9 μM, 24 h, vs control group
Description: as §4

[10] = 0.9 μM, 24 h, relative to control
[11] = 0.3 and 0.9 μM, vs control group
[12] = CMT-7364, 0.9 μM celastrol, SYBR
[13] = CMT-7364 cells, 0.9 μM, 24 h, qPCR, vs control
[14] = test 1, CMT-7364 cells, 0.9 μM, instrument sheet, CMT-7364 control RQ 1
[15] = CIPp cells, 0.9 μM, 24 h, qPCR, vs control

CC1=C(O)C(=O)C=C2C1=CC=C1[C@@]2(C)CC[C@@]2(C)[C@@H]3C[C@](C)(C(=O)O)CC[C@]3(C)CC[C@]12C [celastrol, Celastrol]
invasion rate (CMT-7364 cells [1]; [10]): 28.00 ± 1.53%
invasion ability (CMT-7364 cells [1]; [11]): inhibited the invasion ability of CMT-7364 and CIPp cells in a dose-dependent manner
invasion rate (CIPp cells [2]; [10]): 32.00 ± 1.73%
invasion ability (CIPp cells [2]; [11]): inhibited the invasion ability of CMT-7364 and CIPp cells in a dose-dependent manner
RQ Max, caspase-9 (CMT-7364 cells [3]; [12]): 2.21
RQ Max, p-27 (CMT-7364 cells [3]; [12]): 1.96
RQ Max, β-actin (CMT-7364 cells [3]; [12]): 1.84
RQ Min, caspase-9 (CMT-7364 cells [3]; [12]): 0.45
RQ Min, p-21 (CMT-7364 cells [3]; [12]): 0
RQ Min, p-27 (CMT-7364 cells [3]; [12]): 0.51
RQ Min, β-actin (CMT-7364 cells [3]; [12]): 0.54
RQ, caspase-9 (CMT-7364 cells [3]; [12]): 1
RQ, p-21 (CMT-7364 cells [3]; [12]): 1
RQ, p-27 (CMT-7364 cells [3]; [12]): 1
RQ, β-actin (CMT-7364 cells [3]; [12]): 1
mRNA expression level of Caspase-3 (CMT-7364 cells [3]; [13]): significantly up-regulated
mRNA expression level of Caspase-9 (CMT-7364 cells [3]; [13]): significantly up-regulated
mRNA expression level of p21 (CMT-7364 cells [3]; [13]): up-regulated
mRNA expression level of p27 (CMT-7364 cells [3]; [13]): up-regulated
RQ, caspase-3 (CMT-7364 cells [3]; [14]): 0.26
RQ, caspase-9 (CMT-7364 cells [3]; [14]): 0.29
RQ, p-21 (CMT-7364 cells [3]; [14]): 0.53
RQ, p-27 (CMT-7364 cells [3]; [14]): 0.19
RQ, p-27 (CMT-7364 cells [3]; test 2, CMT-7364 cells, 0.9 μM, instrument sheet, this sample is the calibrator (ΔΔCt 0.00), CMT-7364 control RQ 1.47): 1
RQ, caspase-9 (CMT-7364 cells [3]; test 2, CMT-7364 cells, 0.9 μM, instrument sheet, this sample is the calibrator (ΔΔCt 0.00), CMT-7364 control RQ 25.61): 1
RQ, p-21 (CMT-7364 cells [3]; test 2, CMT-7364 cells, 0.9 μM, instrument sheet, this sample is the calibrator (ΔΔCt 0.00), CMT-7364 control RQ 51.05): 1
mRNA expression level of Caspase-3 (CIPp cells [4]; [15]): significantly up-regulated
mRNA expression level of Caspase-9 (CIPp cells [4]; [15]): significantly up-regulated
mRNA expression level of p21 (CIPp cells [4]; [15]): up-regulated
mRNA expression level of p27 (CIPp cells [4]; [15]): up-regulated
RQ Max, caspase-9 (CIPp cells [4]; CIPp, 0.9 μM celastrol, SYBR): 2.2
RQ Max, p-21 (CIPp cells [4]; CIPp, 0.9 μM celastrol, SYBR): 155.13
RQ Max, p-27 (CIPp cells [4]; CIPp, 0.9 μM celastrol, SYBR): 4.26
RQ Max, β-actin (CIPp cells [4]; CIPp, 0.9 μM celastrol, SYBR): 0.51
RQ Min, caspase-9 (CIPp cells [4]; CIPp, 0.9 μM celastrol, SYBR): 0.78
RQ Min, p-21 (CIPp cells [4]; CIPp, 0.9 μM celastrol, SYBR): 3.13
RQ Min, p-27 (CIPp cells [4]; CIPp, 0.9 μM celastrol, SYBR): 1.54
RQ Min, β-actin (CIPp cells [4]; CIPp, 0.9 μM celastrol, SYBR): 0.16
RQ, caspase-9 (CIPp cells [4]; CIPp, 0.9 μM celastrol, SYBR): 1.31
RQ, p-21 (CIPp cells [4]; CIPp, 0.9 μM celastrol, SYBR): 22.02
RQ, p-27 (CIPp cells [4]; CIPp, 0.9 μM celastrol, SYBR): 2.56
RQ, β-actin (CIPp cells [4]; CIPp, 0.9 μM celastrol, SYBR): 0.29
RQ, caspase-9 (CIPp cells [4]; test 1, CIPp cells, 0.9 μM, instrument sheet, calibrator CMT-7364 control RQ 1, CIPp control RQ 0.41): 0.44
RQ, caspase-3 (CIPp cells [4]; test 1, CIPp cells, 0.9 μM, instrument sheet, calibrator CMT-7364 control RQ 1, CIPp control RQ 0.46): 0.42
RQ, p-21 (CIPp cells [4]; test 1, CIPp cells, 0.9 μM, instrument sheet, calibrator CMT-7364 control RQ 1, CIPp control RQ 0.49): 0.27
RQ, p-27 (CIPp cells [4]; test 1, CIPp cells, 0.9 μM, instrument sheet, calibrator CMT-7364 control RQ 1, CIPp control RQ 0.59): 0.17
RQ, caspase-9 (CIPp cells [4]; test 2, CIPp cells, 0.9 μM, instrument sheet, calibrator CMT-7364 0.9 μM celastrol RQ 1, CIPp control RQ 156.08): 8.49
RQ, p-21 (CIPp cells [4]; test 2, CIPp cells, 0.9 μM, instrument sheet, calibrator CMT-7364 0.9 μM celastrol RQ 1, CIPp control RQ 156.97): 12.17
RQ, p-27 (CIPp cells [4]; test 2, CIPp cells, 0.9 μM, instrument sheet, calibrator CMT-7364 0.9 μM celastrol RQ 1, CIPp control RQ 162.87): 12.46
migration rate (CMT-7364 cells [5]): 55.33 ± 4.91%
migration rate (CIPp cells [6]): 52.00 ± 1.73%
cell viability (CMT-7364 cells [7]; 0.1-1.6 μM, 12-48 h): decreased the viability of the cells in a dose- and time-dependent manner
IC50 (CMT-7364 cells [7]; 24 h): 1240 nM
IC50 (CMT-7364 cells [7]; 48 h): 1010 nM
proliferation (CMT-7364 cells [7]; concentration <1.2 μM): significantly inhibited
green fluorescence (Annexin V-FITC, apoptotic cells) (CMT-7364 cells [8]): increased
green fluorescence (Annexin V-FITC, apoptotic cells) (CIPp cells [9]): increased
